These results are taken from US20230102483A1, “[6R]-MTHF IN 5-FU BASED CHEMOTHERAPY OF LEFT-SIDED COLORECTAL CANCER” (Isofol Medical AB, priority 2021, published 2023).

Data set [1] relates to metastatic colorectal cancer tumors (Stadium IV CRC patients). The data set can be described thus: Clinical Study ISO-CC-005 (Phase I/IIa) safety extension cohorts and Follow-up study: tumour response by CT/MRI per RECIST 1.1. The format is in vivo, human. From the text: As used herein, the term ORR shall refer to the Objective Response Rate, ie. the proportion of patients with reduction in tumor burden of a predefined amount. […] (Note: the appearance of one or more new lesions is also considered progression). […] Shortly after, applicant started two additional treatment groups in 2018 to generate more safety and efficacy data, i.e. the safety extension Cohort #18 (Treatment Arm #4) and Cohort #19 (Treatment Arm #6). The aim was to evaluate as many patients as possible from the additional treatment groups after a treatment period of 16 weeks or more. On 30 Sep. 2020, applicant announced response assessment data from the two safety extension cohorts (31 patients) treated for 16 weeks or longer (press release: 55% Overall Response Rate on the safety extension cohorts of the ISO-CC-005 Phase I/IIa study|BioSpace). […] These patients had been treated with the selected dose regimen of 120 mg/m2 arfolitixorin and 5-fluorouracil (5-FU) with either irinotecan or oxaliplatin ([…]). Out of the 31 patients, 17 were treated with an ARFOX regimen. Clinical Study ISO-CC-005 was an exploratory, Phase I/II multiple-centre study to be carried out in Stadium IV CRC patients. The study was designed to show clinical relevance for patients by characterizing the tolerability of four arfolitixorin dose levels (30, 60, 120, and 240 mg/m2) in six different standard clinical settings in the presence of fixed doses of 5-FU alone or in combination with either oxaliplatin, irinotecan, or oxaliplatin and bevacizumab. [table] The study was divided in the Main Study and the Follow-up Study. In the Main Study, patients received study treatment with arfolitixorin during eight weeks. Patients eligible for the Follow-up study could participate until reaching progress, but no longer than 18 months. […] The goal with the Dose-finding part of the Main Study was to establish the arfolitixorin dose level assessed as having the most favourable profile, i.e. the selected phase 2 dose (SP2D). […] Response was measured in short- and long-term assessments. […]

For data set [2] the following is noted: leucovorin vs levoleucovorin; cited from earlier work.
The conditions of data set [3]: cited from earlier work.

Each structure is given as a SMILES string.

On to `Nc1nc2c(c(=O)[nH]1)N1CN(c3ccc(C(=O)N[C@@H](CCC(=O)O)C(=O)O)cc3)C[C@H]1CN2` [[6R]-5,10-MTHF, [6R]-5,10-methylenetetrahydrofolate], for which the “progression of tumors between 8 and 16 weeks after initiating treatment” value in data set [1] (ISO-CC-005, treatment period of at least 8 weeks) is given as “No statistically significant progression”. The “best ORR, patients diagnosed with LCRC or RCA” value in data set [1] (left-sided or rectal primary tumor (18 patients), 16 weeks and beyond, 120 mg/m2 arfolitixorin) is given as more than 60%. For the same molecule, in data set [1] (left-sided primary tumor (13 patients), 16 weeks and beyond, 120 mg/m2 arfolitixorin), the “best ORR, only LCRC (without the rectal cases)” value is approximately 70%.

For the molecule `Nc1nc(=O)c2c([nH]1)NC[C@H](CNc1ccc(C(=O)N[C@@H](CCC(=O)O)C(=O)O)cc1)N2C=O` [1-LV], the pharmacokinetic comparison entry in data set [2] was “pharmacokinetically identical”. For the same molecule, the metabolic conversion result in data set [3] (In vitro) was “rapidly converted to the biologically available methyl-tetrahydrofolate form”.

In the case of `Nc1nc2c(c(=O)[nH]1)N(C=O)[C@H](CNc1ccc(C(=O)N[C@@H](CCC(=O)O)C(=O)O)cc1)CN2` [d-LV], the excretion entry in data set [3] (kidneys) is given as “slowly excreted by the kidneys”.

In the case of `Nc1nc2c(c(=O)[nH]1)N(C=O)C(CNc1ccc(C(=O)N[C@@H](CCC(=O)O)C(=O)O)cc1)CN2` (stereo partly shown) [Leucovorin, 5-formyl tetrahydrofolic acid], in data set [2], the pharmacokinetic comparison entry is reported as “pharmacokinetically identical”.
